Where two headings read alike, the source gives them in different places.
Key:
Assay in all cases: R-SAT broad profiling
Assay type in all cases: cell-based
5HT2B [1] = target: T1, 5HT2B (Homo sapiens, UniProt P41595); design: expressed in transfected cells; host or cells: NIH3T3; conditions: read-out: pEC50 or pIC50 (converted)
Procedure: (§1) The functional receptor assay, Receptor Selection and Amplification Technology (R-SAT), was used (with minor modifications from that previously described U.S. Pat. No. 5,707,798) to screen compounds for efficacy at the 5-HT2A receptor. Briefly, NIH3T3 cells were grown in 96 well tissue culture plates to 70-80% confluence. Cells were transfected for 12-16 hours with plasmid DNAs using superfect (Qiagen Inc.) as per manufacture's protocols. R-SAT's were generally performed with 50 ng/well of receptor and 20 ng/well of Beta-galactosidase plasmid DNA. All receptor and G-protein constructs used were in the pSI mammalian expression vector (Promega Inc) as described in U.S. Pat. No. 5,707,798. The 5HT2A receptor gene was amplified by nested PCR from brain cDNA using the oligodeoxynucleotides based on the published sequence (see Saltzman et. al. Biochem. Biophys. Res. Comm. 181:1469-78 (1991)). Large-scale transfections, cells were transfected for 12-16 hours, then trypsinized and frozen in DMSO. Frozen cells were later thawed, plated at 10,000-40,000 cells per well of a 96 well plate that contained drug. With both methods, cells were then grown in a humidified atmosphere with 5% ambient CO2 for five days. Media was then removed from the plates and marker gene activity was measured by the addition of the beta-galactosidase substrate ONPG (in PBS with 5% NP-40). The resulting colorimetric reaction was measured in a spectrophotometric plate reader (Titertek Inc.)at […]. All data were analyzed using the computer program XLFit (IDBSm). Efficacy is the percent maximal repression compared to repression by a control compound (ritanserin in the case of 5HT2A). pIC50 is the negative of the log(IC50), where IC50 is the calculated concentration in Molar that produces 50% maximal repression.
The R-SAT assay (described above in example 289) was used to investigate the selectivity of 4-(4-Fluoro-benzyl)-3-(4-isobutoxy-benzyl)-8-methyl-1-oxa-3,8-diaza-spiro[4.5]decan-2-one.
Target sequence in this assay (P41595 whole entry): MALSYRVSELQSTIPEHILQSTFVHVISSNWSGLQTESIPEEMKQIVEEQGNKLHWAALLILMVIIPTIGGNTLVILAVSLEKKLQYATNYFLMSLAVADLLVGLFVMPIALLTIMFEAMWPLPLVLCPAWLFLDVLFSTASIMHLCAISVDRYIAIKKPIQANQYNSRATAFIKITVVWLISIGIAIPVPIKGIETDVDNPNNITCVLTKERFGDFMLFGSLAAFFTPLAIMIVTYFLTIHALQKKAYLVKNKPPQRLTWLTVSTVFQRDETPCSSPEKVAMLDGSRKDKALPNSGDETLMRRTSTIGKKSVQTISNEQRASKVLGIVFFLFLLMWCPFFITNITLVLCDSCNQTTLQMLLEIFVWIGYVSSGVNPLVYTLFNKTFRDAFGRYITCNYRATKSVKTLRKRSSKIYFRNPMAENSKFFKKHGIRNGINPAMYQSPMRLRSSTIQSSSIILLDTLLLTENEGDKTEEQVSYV

5HT2B [2] = target: T1, 5HT2B; design: expressed in transfected cells; conditions: read-out: pEC50/pIC50 (converted)
Procedure: as §1
(§2) The R-SAT assay (described above in example 136) was used to investigate the selectivity of 2-(4-Methoxyphenyl)-N-(4-methylbenzyl)-N-(1-methylpiperidin-4-yl)acetamide hydrochloride.
Target sequence in this assay (P41595 whole entry, species assumed): as the sequence (P41595 whole entry) above

5HT1E = 5HT1E (Homo sapiens, UniProt P28566); design: expressed in transfected cells; conditions: read-out: pEC50/pIC50 (converted)
Procedure: as §1, §2

5HT2C = target: T2, 5HT2C (Homo sapiens, UniProt P28335); design: expressed in transfected cells; conditions: read-out: pEC50/pIC50 (converted)
T2 sequence (P28335 33-458): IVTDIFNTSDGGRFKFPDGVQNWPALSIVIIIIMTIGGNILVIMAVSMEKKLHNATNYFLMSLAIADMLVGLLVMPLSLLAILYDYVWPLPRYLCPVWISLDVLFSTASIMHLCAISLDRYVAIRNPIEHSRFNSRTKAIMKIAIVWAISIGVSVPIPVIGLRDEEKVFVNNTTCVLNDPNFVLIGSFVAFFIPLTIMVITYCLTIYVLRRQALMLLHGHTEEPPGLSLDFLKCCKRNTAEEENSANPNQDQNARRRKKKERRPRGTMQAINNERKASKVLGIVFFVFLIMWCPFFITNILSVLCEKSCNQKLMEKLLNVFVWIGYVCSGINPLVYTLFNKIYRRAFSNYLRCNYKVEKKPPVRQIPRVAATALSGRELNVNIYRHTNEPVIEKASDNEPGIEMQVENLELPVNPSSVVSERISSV
Procedure: as §1, §2

5HT1B = 5HT1B (Homo sapiens, UniProt P28222); design: expressed in transfected cells; conditions: read-out: pEC50/pIC50 (converted)
Procedure: as §1, §2

5HT1D = 5HT1D (Homo sapiens, UniProt P28221); design: expressed in transfected cells; conditions: read-out: pEC50/pIC50 (converted)
Procedure: as §1, §2

5HT1F = target: T3, 5HT1F (Homo sapiens, UniProt P30939); design: expressed in transfected cells; conditions: read-out: pEC50/pIC50 (converted)
T3 sequence (P30939 1-366): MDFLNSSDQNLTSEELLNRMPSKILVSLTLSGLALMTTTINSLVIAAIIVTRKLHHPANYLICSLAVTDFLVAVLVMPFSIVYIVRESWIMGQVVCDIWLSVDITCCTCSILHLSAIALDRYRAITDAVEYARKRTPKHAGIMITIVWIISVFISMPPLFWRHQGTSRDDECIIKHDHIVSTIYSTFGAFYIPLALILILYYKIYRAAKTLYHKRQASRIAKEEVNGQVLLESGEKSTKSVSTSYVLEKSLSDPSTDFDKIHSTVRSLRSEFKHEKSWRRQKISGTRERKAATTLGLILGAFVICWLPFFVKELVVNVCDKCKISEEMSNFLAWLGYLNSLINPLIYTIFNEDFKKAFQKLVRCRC
Procedure: as §1, §2

5HT1A = target: T4, 5HT1A (Homo sapiens, UniProt P08908); design: expressed in transfected cells; conditions: read-out: pEC50/pIC50 (converted)
T4 sequence (P08908 1-422): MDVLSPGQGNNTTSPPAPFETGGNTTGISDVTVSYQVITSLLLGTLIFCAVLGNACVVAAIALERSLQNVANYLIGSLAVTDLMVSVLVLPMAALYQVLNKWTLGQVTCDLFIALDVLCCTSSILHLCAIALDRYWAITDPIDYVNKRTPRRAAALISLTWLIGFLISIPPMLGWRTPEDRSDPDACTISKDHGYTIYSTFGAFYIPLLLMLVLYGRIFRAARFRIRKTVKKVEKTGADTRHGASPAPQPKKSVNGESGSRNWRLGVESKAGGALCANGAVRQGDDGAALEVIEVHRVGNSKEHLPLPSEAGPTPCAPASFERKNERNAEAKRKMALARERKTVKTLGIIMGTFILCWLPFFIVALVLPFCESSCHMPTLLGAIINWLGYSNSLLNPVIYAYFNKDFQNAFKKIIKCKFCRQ
Procedure: as §1, §2

Sequence of 5HT1B (P28222 whole entry, species assumed): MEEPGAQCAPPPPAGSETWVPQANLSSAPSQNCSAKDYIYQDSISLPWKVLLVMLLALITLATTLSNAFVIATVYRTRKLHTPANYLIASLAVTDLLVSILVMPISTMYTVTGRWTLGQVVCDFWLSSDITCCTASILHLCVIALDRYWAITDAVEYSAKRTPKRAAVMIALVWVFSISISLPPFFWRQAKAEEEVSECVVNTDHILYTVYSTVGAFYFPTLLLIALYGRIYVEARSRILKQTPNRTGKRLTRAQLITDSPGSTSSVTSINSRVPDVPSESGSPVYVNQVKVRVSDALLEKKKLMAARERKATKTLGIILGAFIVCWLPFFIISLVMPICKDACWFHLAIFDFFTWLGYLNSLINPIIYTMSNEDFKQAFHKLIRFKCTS
Sequence of 5HT1E (P28566 whole entry, species assumed): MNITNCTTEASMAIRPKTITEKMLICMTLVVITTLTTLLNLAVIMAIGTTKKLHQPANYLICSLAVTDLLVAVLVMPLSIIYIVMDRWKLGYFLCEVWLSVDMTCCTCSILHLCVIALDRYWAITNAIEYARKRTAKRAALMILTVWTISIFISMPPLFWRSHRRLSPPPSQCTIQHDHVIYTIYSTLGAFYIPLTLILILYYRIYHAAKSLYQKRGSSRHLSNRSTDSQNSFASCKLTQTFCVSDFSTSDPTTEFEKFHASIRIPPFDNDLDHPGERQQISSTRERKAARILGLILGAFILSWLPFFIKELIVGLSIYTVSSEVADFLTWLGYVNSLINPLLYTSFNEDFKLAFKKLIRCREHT
Sequence of 5HT1D (P28221 whole entry, species assumed): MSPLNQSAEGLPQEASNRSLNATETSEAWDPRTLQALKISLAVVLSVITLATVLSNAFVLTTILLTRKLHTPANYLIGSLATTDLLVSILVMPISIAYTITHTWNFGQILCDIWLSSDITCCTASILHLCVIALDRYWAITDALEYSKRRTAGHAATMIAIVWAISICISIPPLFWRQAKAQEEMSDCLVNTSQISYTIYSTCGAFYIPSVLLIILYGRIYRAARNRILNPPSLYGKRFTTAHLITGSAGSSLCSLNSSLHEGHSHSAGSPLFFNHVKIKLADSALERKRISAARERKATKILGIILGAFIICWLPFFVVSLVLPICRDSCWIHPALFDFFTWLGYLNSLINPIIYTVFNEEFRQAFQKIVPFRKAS

EC50 (5HT2B [2]; agonist) [µM] | IC50 (5HT2B [2]; inverse agonist) [µM] | EC50 (5HT1E; agonist) [µM] | IC50 (5HT1E; antagonist) [µM] | EC50 (5HT2C; agonist) [µM] | IC50 (5HT2C; inverse agonist) [µM] | EC50 (5HT1B; agonist) [µM] | IC50 (5HT1B; antagonist) [µM] | EC50 (5HT1D; agonist) [µM] | IC50 (5HT1D; antagonist) [µM] | EC50 (5HT1F; agonist) [µM] | IC50 (5HT1F; antagonist) [µM] | EC50 (5HT1A; agonist) [µM] | IC50 (5HT1A; antagonist) [µM] | SMILES | EC50 (5HT2B [1]; agonist) [µM] | IC50 (5HT2B [1]; antagonist) [µM] | IC50 (5HT2B [1]; inverse) [µM]
– | – | – | – | – | – | – | – | – | – | – | – | – | – | CC(C)COc1ccc(CN2C(=O)OC3(CCN(C)CC3)C2Cc2ccc(F)cc2)cc1.Cl (racemic) [Example 69NLS75, 4-(4-Fluorobenzyl)-3-(4-isobutoxybenzyl)-8-methyl-1-oxa-3,8-diazaspiro[4.5]decan-2-one, hydrochloride] | > 3.16 | > 3.16 | > 2.51
> 3.16 | 0.126 | > 3.16 | > 3.16 | > 3.16 | 0.1 | > 3.16 | > 3.16 | > 3.16 | > 3.16 | > 3.16 | > 3.16 | > 3.16 | > 3.16 | COc1ccc(CC(=O)N(Cc2ccc(C)cc2)C2CCN(C)CC2)cc1 [Example 50ELH27, 2-(4-Methoxyphenyl)-N-(4-methylbenzyl)-N-(1-methylpiperidin-4-yl)acetamide] | – | – | –

From patent publication US20080051429A1, “USE OF 4-AMINO-PIPERIDINES FOR TREATING SLEEP DISORDERS” (priority 2006, published 2008)
